Reference: patent publication US8802597B2, “Herbicidal pyrimidines” (E I du Pont de Nemours and Company, priority 2003, dated 2014)

Key:
Assay type in all cases: in vivo
[1] = system: Surinam grass (Brachiaria decumbens); experiment: Test B pre/postemergence; settings: for Surinam Grass plant response rating: Postemergence; for Plant response rating, Surinam Grass: Preemergence
Outline: (§1)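 Visual injury scored 0 (no effect) to 100 (complete control) versus untreated controls after 13 to 15 days in greenhouse. Treatments were pre- or postemergence sprays of surfactant-containing solvent formulations; postemergence plants at 1- to 4-leaf stage, 2 to 18 cm.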

[2] = system: barnyardgrass (Echinochloa crus-galli); experiment: Test B pre/postemergence; settings: for Barnyardgrass plant response rating: Postemergence; for Plant response rating, Barnyardgrass: Preemergence
Outline: as §1

[3] = system: cocklebur (Xanthium strumarium); experiment: Test B pre/postemergence; settings: for Cocklebur plant response rating: Postemergence; for Plant response rating, Cocklebur: Preemergence
Outline: as §1

[4] = system: corn (Zea mays); experiment: Test B pre/postemergence; settings: for Corn plant response rating: Postemergence; for Plant response rating, Corn: Preemergence
Outline: as §1

[5] = system: crabgrass (Digitaria sanguinalis); experiment: Test B pre/postemergence; settings: for Crabgrass plant response rating: Postemergence; for Plant response rating, Crabgrass: Preemergence
Outline: as §1

[6] = system: giant foxtail (Setaria faberii); experiment: Test B pre/postemergence; settings: for Foxtail, Giant plant response rating: Postemergence; for Plant response rating, Foxtail, Giant: Preemergence
Outline: as §1

[7] = system: lambsquarters (Chenopodium album); experiment: Test B pre/postemergence; settings: for Lambsquarters plant response rating: Postemergence; for Plant response rating, Lambsquarters: Preemergence
Outline: as §1

[8] = system: morningglory (Ipomoea coccinea); experiment: Test B pre/postemergence; settings: for Morningglory plant response rating: Postemergence; for Plant response rating, Morningglory: Preemergence
Outline: as §1

[9] = system: pigweed (Amaranthus retroflexus); experiment: Test B pre/postemergence; settings: for Pigweed plant response rating: Postemergence; for Plant response rating, Pigweed: Preemergence
Outline: as §1

[10] = system: velvetleaf (Abutilon theophrasti); experiment: Test B pre/postemergence; settings: for Velvetleaf plant response rating: Postemergence; for Plant response rating, Velvetleaf: Preemergence
Outline: as §1

[11] = system: wheat (Triticum aestivum); experiment: Test B pre/postemergence; settings: for Wheat plant response rating: Postemergence; for Plant response rating, Wheat: Preemergence
Outline: as §1

[12] = system: blackgrass (Alopecurus myosuroides); experiment: Test B postemergence; settings: scale 0 to 100 (0 no effect, 100 complete control)
Outline: as §1

[13] = system: wild oat (Avena fatua); experiment: Test B postemergence; settings: scale 0 to 100 (0 no effect, 100 complete control)
Outline: as §1

[14] = system: barnyardgrass (Echinochloa crus-galli); experiment: Test B flooded paddy test; settings: Flood, scale 0 to 100
Outline: (§2)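 Plants were grown to the 2-leaf stage before treatment, then kept in a greenhouse for 13 to 15 days. Injury was rated visually against untreated controls on a 0 to 100 scale, where 0 is no effect and 100 is complete control.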

[15] = system: duck salad (Heteranthera limosa); experiment: Test B flooded paddy test; settings: Flood, scale 0 to 100
Outline: as §2

[16] = system: rice (Oryza sativa); experiment: Test B flooded paddy test; settings: Flood, scale 0 to 100
Outline: as §2

[17] = system: umbrella sedge (Cyperus difformis); experiment: Test B flooded paddy test; settings: Flood, scale 0 to 100
Outline: as §2

[18] = 62 g ai/ha, scale 0 to 100 (0 no effect, 100 complete control)
[19] = 125 g ai/ha, scale 0 to 100 (0 no effect, 100 complete control)
[20] = 62 g ai/ha, scale 0 to 100, 0 no effect, 100 complete control

COC(=O)c1nc(-c2ccc(Cl)cc2)nc(N)c1Br [Compound 83]
Surinam Grass plant response rating [1, 18]: 50
Surinam Grass plant response rating [1, 19]: 60
Plant response rating, Surinam Grass [1, 20]: 0
Plant response rating, Surinam Grass [1, 19]: 10
Barnyardgrass plant response rating [2, 18]: 50
Barnyardgrass plant response rating [2, 19]: 80
Plant response rating, Barnyardgrass [2, 20]: 20
Plant response rating, Barnyardgrass [2, 19]: 30
Cocklebur plant response rating [3, 18]: 90
Cocklebur plant response rating [3, 19]: 100
Plant response rating, Cocklebur [3, 20]: 10
Plant response rating, Cocklebur [3, 19]: 50
Corn plant response rating [4, 18]: 10
Corn plant response rating [4, 19]: 10
Plant response rating, Corn [4, 20]: 0
Plant response rating, Corn [4, 19]: 0
Crabgrass plant response rating [5, 18]: 50
Crabgrass plant response rating [5, 19]: 60
Plant response rating, Crabgrass [5, 20]: 30
Plant response rating, Crabgrass [5, 19]: 60
Foxtail, Giant plant response rating [6, 18]: 40
Foxtail, Giant plant response rating [6, 19]: 50
Plant response rating, Foxtail, Giant [6, 20]: 0
Plant response rating, Foxtail, Giant [6, 19]: 10
Lambsquarters plant response rating [7, 18]: 100
Lambsquarters plant response rating [7, 19]: 100
Plant response rating, Lambsquarters [7, 20]: 70
Plant response rating, Lambsquarters [7, 19]: 90
Morningglory plant response rating [8, 18]: 60
Morningglory plant response rating [8, 19]: 100
Plant response rating, Morningglory [8, 20]: 0
Plant response rating, Morningglory [8, 19]: 10
Pigweed plant response rating [9, 18]: 100
Pigweed plant response rating [9, 19]: 100
Plant response rating, Pigweed [9, 20]: 80
Plant response rating, Pigweed [9, 19]: 100
Velvetleaf plant response rating [10, 18]: 80
Velvetleaf plant response rating [10, 19]: 90
Plant response rating, Velvetleaf [10, 20]: 50
Plant response rating, Velvetleaf [10, 19]: 60
Wheat plant response rating [11, 18]: 0
Wheat plant response rating [11, 19]: 30
Plant response rating, Wheat [11, 20]: 20
Plant response rating, Wheat [11, 19]: 50
Blackgrass plant response rating ([12]; 62 g ai/ha): 50
Blackgrass plant response rating ([12]; 125 g ai/ha): 60
Oat, Wild plant response rating ([13]; 62 g ai/ha): 0
Oat, Wild plant response rating ([13]; 125 g ai/ha): 40
Plant response rating, Barnyardgrass ([14]; 125 g ai/ha): 0
Plant response rating, Barnyardgrass ([14]; 500 g ai/ha): 0
Plant response rating, Ducksalad ([15]; 125 g ai/ha): 100
Plant response rating, Ducksalad ([15]; 500 g ai/ha): 100
Plant response rating, Rice ([16]; 125 g ai/ha): 0
Plant response rating, Rice ([16]; 500 g ai/ha): 0
Plant response rating, Sedge, Umbrella ([17]; 125 g ai/ha): 90
Plant response rating, Sedge, Umbrella ([17]; 500 g ai/ha): 100

Nc1nc(-c2ccc(Cl)cc2)nc(C(=O)O)c1Br [Compound 88]
Surinam Grass plant response rating [1, 18]: 80
Surinam Grass plant response rating [1, 19]: 80
Plant response rating, Surinam Grass [1, 20]: 20
Plant response rating, Surinam Grass [1, 19]: 50
Barnyardgrass plant response rating [2, 18]: 90
Barnyardgrass plant response rating [2, 19]: 90
Cocklebur plant response rating [3, 18]: 100
Cocklebur plant response rating [3, 19]: 100
Plant response rating, Cocklebur [3, 20]: 60
Plant response rating, Cocklebur [3, 19]: 90
Corn plant response rating [4, 18]: 70
Corn plant response rating [4, 19]: 80
Plant response rating, Corn [4, 20]: 0
Plant response rating, Corn [4, 19]: 10
Crabgrass plant response rating [5, 18]: 70
Crabgrass plant response rating [5, 19]: 80
Plant response rating, Crabgrass [5, 20]: 50
Plant response rating, Crabgrass [5, 19]: 70
Foxtail, Giant plant response rating [6, 18]: 60
Foxtail, Giant plant response rating [6, 19]: 70
Plant response rating, Foxtail, Giant [6, 20]: 10
Plant response rating, Foxtail, Giant [6, 19]: 30
Lambsquarters plant response rating [7, 18]: 100
Lambsquarters plant response rating [7, 19]: 100
Morningglory plant response rating [8, 18]: 60
Morningglory plant response rating [8, 19]: 90
Plant response rating, Morningglory [8, 20]: 0
Plant response rating, Morningglory [8, 19]: 10
Pigweed plant response rating [9, 18]: 100
Pigweed plant response rating [9, 19]: 100
Velvetleaf plant response rating [10, 18]: 90
Velvetleaf plant response rating [10, 19]: 100
Plant response rating, Velvetleaf [10, 20]: 70
Plant response rating, Velvetleaf [10, 19]: 90
Wheat plant response rating [11, 18]: 50
Wheat plant response rating [11, 19]: 60
Plant response rating, Wheat [11, 20]: 50
Plant response rating, Wheat [11, 19]: 70
Blackgrass plant response rating ([12]; 62 g ai/ha): 40
Blackgrass plant response rating ([12]; 125 g ai/ha): 60
Oat, Wild plant response rating ([13]; 62 g ai/ha): 40
Oat, Wild plant response rating ([13]; 125 g ai/ha): 50
Plant response rating, Barnyardgrass ([14]; 125 g ai/ha): 0
Plant response rating, Barnyardgrass ([14]; 500 g ai/ha): 0
Plant response rating, Ducksalad ([15]; 125 g ai/ha): 90
Plant response rating, Ducksalad ([15]; 500 g ai/ha): 90
Plant response rating, Rice ([16]; 125 g ai/ha): 0
Plant response rating, Rice ([16]; 500 g ai/ha): 0
Plant response rating, Sedge, Umbrella ([17]; 125 g ai/ha): 60
Plant response rating, Sedge, Umbrella ([17]; 500 g ai/ha): 90
